Results: patent publication US10189887B2, “Polypeptides and uses thereof for reducing CD95-mediated cell motility” (INSERM (INSTITUT NATIONAL DE LA SANTÉ ET DE LA RECHERCHE …, priority 2014, dated 2019)

Assays:
MDA-MB-231 = assay: Boyden chamber migration of triple negative breast cancer cells; format: cell-based; conditions: MDA-MB-231 pre-incubated 1 hour with 10 μM; cl-CD95L 100 ng/mL for 24 h
Description: Boyden chambers contained membranes with a pore size of 8 μm (Millipore, Molsheim, France). After hydration of the membranes, breast cancer cells (10^5 cells per chamber) were added to the top chamber in low serum (1%)-containing medium. The bottom chamber was filled with low serum (1%)-containing medium in the presence or absence of cl-CD95L (100 ng/mL). Cells were cultured for 24 h at 37° C. To quantify migration, cells were mechanically removed from the top-side of the membrane using a cotton-tipped swab, and migrating cells from the reverse side were fixed with methanol and stained with Giemsa. For each experiment, five representative pictures were taken for each insert, then cells were lyzed and absorbance at 560 nm correlated to the amount of Giemsa stain was measured.

Th17 cells = assay: Endothelial transmigration of CD4 T-cell subsets (Th17, Th1, Treg), Boyden chamber; format: cell-based, human; conditions: indicated concentrations of peptide, Boyden Chamber assay
Description: Animal experiments were subject to ethical review by the University of Nottingham were appropriate and conducted using PPL 40/3412 in accordance with the UK Home Office guidance and under ASPA (1986). For the generation of murine T-cell subsets, spleens were removed from C57Bl/6 mice and single cell suspensions prepared. CD4^+CD62L^+ naïve cells were isolated using Miltenyi Biotec microbeads. Naïve human CD4^+ T-cells were prepared using the Miltenyi Biotec naïve CD4^+ T-cell isolation kit II, which are sorted produced a 99% pure population of CD4^+CD45RA^+ cells. Purified cells were cultured in complete IMDM media all with α-CD3 (1 μg/ml), α-CD28 (2 μg/ml), and as follows; Th1 cells IL-12 (10 ng/ml) with α-IL-4 (10 μg/ml), Th2 cells IL-4 (10 ng/ml) and α-IFN-γ (10 μg/ml), Th17 cells Il-6 (10 ng/ml), TGF-β1 (2 ng/ml), α-IFN-γ (10 μg/ml) with α-IL-4 (10 μg/ml), and Tregs IL-2 (10 ng/ml) TGF-β1 (5 ng/ml), α-IFN-γ (10 μg/ml) and α-IL-4 (10 μg/ml). Cells were converted to T-cell subsets over five days as outlined above. All cytokines were supplied by PeproTech (London, UK). Mouse CD3 (clone 2C11); human CD3 (UCHT1); mouse CD28 (37.51); human CD28 (CD28.2); mouse IL-4 (11B11); human IL-4 (MP4-25D2); mouse IFN-γ (XMG1.2); human IFN-γ B27 came from BD Pharmigen.
After hydration of the Boyden chamber membranes containing 3 μm pore size membranes (Millipore, Molsheim, France), activated T-lymphocytes (10^6) were added to the top chamber on a confluent monolayer of HUVEC in a low serum (1%)-containing medium. […] In experiments using human sera, 500 μl of serum from either healthy donors or SLE patients was added in the lower reservoir. Cells were cultured for 24 h at 37° C. in a 5% CO2 humidified incubator. Transmigrated cells were counted in the lower reservoir by flow cytometry using a standard of 2.5×10^4 fluorescent beads (Flow-count, Beckman Coulter).
Blocking antibodies were used against E-selectin and ICAM-1 in the CHEMICON® endothelial cell adhesion assay (Millipore). Briefly, after activation of the endothelial cell layer with TNF-α, anti-mouse Ig controls, anti-E-selectin or anti-ICAM-1 were added at final concentrations of 10 μg/ml. Thereafter calcein-AM-stained T-cell subsets were incubated for 24 hours and unbound cells are washed. Cells attached to the endothelium were assessed using fluorescence plate reader.

[1] = tested on: Akt serine 473 (PI3K signaling pathway); assay: Akt phosphorylation in PBLs exposed to cl-CD95L; format: cell-based, human; conditions: peptide pre-incubation
Description: Cells were lyzed for 30 minutes at 4° C. in lysis buffer (25 mM HEPES pH 7.4, 1% v/v Triton X-100, 150 mM NaCl, 2 mM EGTA supplemented with a mix of protease inhibitors (Sigma-Aldrich)). Protein concentration was determined by the bicinchoninic acid method (PIERCE, Rockford, Ill., USA) according to the manufacturer's protocol. Proteins were separated on a 12% SDS-PAGE and transferred to a nitrocellulose membrane (GE Healthcare, Buckinghamshire, England). The membrane was blocked 15 minutes with TBST (50 mM Tris, 160 mM NaCl, 0.05% v/v Tween 20, pH 7.8) containing 5% w/v dried skimmed milk (TBSTM). Primary antibody was incubated overnight at 4° C. in TBSTM. The membrane was intensively washed (TBST) and then the peroxydase-labeled anti-rabbit or anti-mouse (SouthernBiotech, Birmingham, Ala., US) was added for 45 minutes. The proteins were visualized with the enhanced chemiluminescence substrate kit (ECL, GE Healthcare).

[2] = tested on: apoptotic signaling pathway; assay: CD95 apoptotic signaling pathway; format: cell-based; conditions: TAT-CID treatment

## TAT-CID: cell penetrating peptide linking the 36-amino acid-stretch of CID (CD95 residues 175 to 210) to the HIV-TAT sequence; SEQ ID NO: 6 (RKKRRQRRRKRKEVQKTCRKHRKENQGSHESPTLNPETVAINLSD; TAT-CID)
MDA-MB-231
  cell migration (Boyden chamber assay): inhibits migration
Th17 cells
  CD95-mediated endothelial transmigration of Th17 cells: inhibited the CD95-mediated endothelial transmigration of human Th17 cells in a dose-dependent manner
[1]
  Akt phosphorylation at serine 473: inhibited Akt phosphorylation at its serine 473
[2]
  execution of the apoptotic signaling pathway: did not affect the execution of the apoptotic signaling pathway
